Source: patent US7241732B2, “Compositions and methods involved in bone growth” (University of Rochester, priority 2001, dated 2007)
Values belong to the molecule of their own block, whether it stands above or below them.

Key:
ROS 17/2.8 cells = test: Apoptosis of ROS 17/2.8 cells on exposure to TRAP (morphology, alkaline phosphatase stain); type: cell-based; conditions: 0.1% DMSO, then TRAP 5 ug/mL
From the text: DMSO, at this low concentration, itself won't cause any toxic effect on cells but can scavenge most of reactive oxygen species. […] Therefore, the TRAP-induced cell apoptosis is not due to a reactive oxygen species effect.

isolated osteoblasts = test: Osteoblast phenotypic markers (alkaline phosphatase, Runx2, OPG, collagen); type: cell-based, rat; conditions: TRAP 10 μg/ml, TGFβ 2 ng/ml; percent of control, FIG. 14
Method: The qualitative pattern of stimulation by TRAP and TGFβ for markers of osteoblast differentiation is similar. […] Alkaline phosphatase (Alk. Phos.) was measured in a direct biochemical assay. Runx2 and osteoprotegerin (OPG) were quantified in an ELISA assay using commercially available antibodies. Collagen was measured by determining the amount of collagenase-digestible protein present in pre-labeled osteoblasts (34). All data are expressed as a percent of the control, untreated cells. All data points are the mean±one SEM. * p 0.05. ** p 0.01.
Isolated osteoblasts were prepared from neo-natal rat calvaria as previously described (Martinez D A, et al., J. Cellular Biochemistry 59: 246-257 (1995)). Alkaline phosphatase assays and standard Western analyses were performed as previously described (Ionescu A M. ET AL., Journal of Biological Chemistry. 276:11639-47 (2001)).
(§1) After incubation, the plates were washed with PBS-Tween.
Osteoblast differentiation at sites of bone remodeling is mediated by a number of regulatory factors. One of the key factors is TGFβ. In most systems, including the typically the disclosed system, TGFβ is known to be a potent enhancer of the osteoblast phenotype.

SW408 cells = test: P3TP-Lux reporter in Smad4 deficient cells; type: cell-based
From the text: SW408 cells are deficient in Smad4, a requisite co-factor for Smad2 and 3 signaling. […] However, when the cells are transfected with both Smad4 and TRIP-1, restoration of Smad signaling can occur. All values are the mean±SEM. * p 0.05 and ** p 0.01 as compared to control.

D14 primary osteoblasts = test: OPG sandwich ELISA; type: cell-based; conditions: following treatment
Method: OPG is the deccoy receptor for the RNAKL and stop the osteoclastogenesis. RANKL and OPG has been proposed for the regulation of osteoclast differentiation function. Both OPG and RANKL can themselves also be regulated by TGF-β (MacDonald R G, Science 239:1134-7, (1988)). […] This lower the secretion amount of OPG the less the protection afforded from the osteoclast.
as §1

[1] = system: TGFβ reporter construct (P3TPlux); test: P3TP lux TGFβ reporter in transfected osteoblasts; type: cell-based; conditions: FIG. 9
Method: Note the difference in scales. N=4-6.
Functionality of TRIP for TGFβ signaling was determined by measuring the activation of a TGFβ promoter/reporter construct, P3TP Lux (see Experimental Design for a complete description of this construct).
Osteoblasts, cultured at 30-40% confluence in 6-well plates, are transfected on day 2 after plating using the transfection reagent Superfect (Qiagen Santa Clarita, Calif.) according to the manufacturer's guidelines. Individual experiments are internally controlled for amount of total plasmid DNA, with equal amounts of p3TP-Lux reporter, control SV40-renilla plasmid for normalization of transfection efficiency, and target construct and/or vector control DNA for all co-transfection experiments. Following transfection, the cells are placed in media containing DMEM, Penicillin/Streptomycin, and 10% NuSerum IV. After 12 hours, they are incubated for 6 hours in serum-free media (containing DMEM, hyaluronidase 4 U/ml, Penicillin/Streptomycin, and supplemented with 10 pM triiodothyronine (Sigma, St. Louis, Mo.), 60 ng/ml insulin, and 1 mM cysteine (Sigma, St. Louis, Mo.)) plus the factor or cytokine of interest. Eighteen hours later, the cells are harvested and assayed for luciferase activity using the Promega dual luciferase assay system. Renilla luciferase values were used to normalize each sample for transfection efficiency.

[2] = system: P3TP-Lux reporter in MG-63 cells; test: P3TP-Lux Smad 2,3 reporter in osteoblast cell lines; type: cell-based, human
From the text: P3TPLux is a Smad 2, 3 sensitive reporter. […] Co-transfection of the cells with a dominant negative TGFβ type II receptor blocks all TRAP and TGFβ signaling. Each bar is the mean of at least four determinations±SEM. * p 0.05 and ** p 0.01 as compared to control. The data for MG-63 cells are shown. The data for the SaOS2 cells are the same (data not shown).
The data with the MG-63 cell is what is shown.

[3] = system: rat calvarial osteoblasts after 14 days of culture; test: Cleaved caspase 3 and cleaved PARP levels; type: cell-based; conditions: day 14 cells, FIGS. 24 and 25
From the text: Biochemical confirmation of the effect of TRAP on osteoblast apoptosis was obtained by assaying levels of caspase-3 and poly ADP-ribose polymerase (PARP) in these cells lines. […] Thus, another indicator of a cells progression through apoptosis is a measurement of its cleaved caspase 3 levels. Similarly, poly ADP-ribose polymerase is a substrate for active caspase 3 and increased levels of cleave PARP are indicative of an active caspase.

[4] = molecular target: T1, TGFβRII, HIS-TRIP and Smad 2 (Homo sapiens, UniProt Q13347); test: GST-TRAP pull-down of receptor complex from transfected 293T cells; type: binding; conditions: exogenous GST-TRAP 12 hours
T1 construct: expressed in transfected cells; host or cells: 293T cells transfected with TGFβRII and His-TRIP-1; Smad 2 endogenous
T1 sequence (Q13347 whole entry): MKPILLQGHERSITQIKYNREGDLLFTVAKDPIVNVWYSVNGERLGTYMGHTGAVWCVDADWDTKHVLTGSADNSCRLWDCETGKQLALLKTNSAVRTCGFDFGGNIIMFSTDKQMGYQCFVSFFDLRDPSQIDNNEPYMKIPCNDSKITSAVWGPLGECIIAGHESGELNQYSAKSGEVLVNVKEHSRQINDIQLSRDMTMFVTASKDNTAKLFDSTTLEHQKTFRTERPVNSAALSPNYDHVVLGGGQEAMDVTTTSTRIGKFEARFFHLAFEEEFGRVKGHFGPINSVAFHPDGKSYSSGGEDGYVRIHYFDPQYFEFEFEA
T1 sequence (P37173 23-567 partner): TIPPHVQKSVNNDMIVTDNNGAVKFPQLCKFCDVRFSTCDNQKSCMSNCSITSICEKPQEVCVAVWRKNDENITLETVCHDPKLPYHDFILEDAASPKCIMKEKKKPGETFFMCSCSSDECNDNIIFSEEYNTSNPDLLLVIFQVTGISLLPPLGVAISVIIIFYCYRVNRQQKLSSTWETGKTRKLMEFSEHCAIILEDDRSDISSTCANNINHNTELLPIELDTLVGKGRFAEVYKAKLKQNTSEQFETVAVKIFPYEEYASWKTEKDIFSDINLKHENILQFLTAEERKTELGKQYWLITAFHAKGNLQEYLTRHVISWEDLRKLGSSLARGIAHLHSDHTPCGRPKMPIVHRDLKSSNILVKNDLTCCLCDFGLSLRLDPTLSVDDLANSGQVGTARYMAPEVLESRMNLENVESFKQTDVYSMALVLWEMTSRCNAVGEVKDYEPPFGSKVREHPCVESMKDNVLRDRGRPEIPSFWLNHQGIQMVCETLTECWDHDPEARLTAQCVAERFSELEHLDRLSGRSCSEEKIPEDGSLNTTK
T1 sequence (Q15796 2-467 partner limits assumed): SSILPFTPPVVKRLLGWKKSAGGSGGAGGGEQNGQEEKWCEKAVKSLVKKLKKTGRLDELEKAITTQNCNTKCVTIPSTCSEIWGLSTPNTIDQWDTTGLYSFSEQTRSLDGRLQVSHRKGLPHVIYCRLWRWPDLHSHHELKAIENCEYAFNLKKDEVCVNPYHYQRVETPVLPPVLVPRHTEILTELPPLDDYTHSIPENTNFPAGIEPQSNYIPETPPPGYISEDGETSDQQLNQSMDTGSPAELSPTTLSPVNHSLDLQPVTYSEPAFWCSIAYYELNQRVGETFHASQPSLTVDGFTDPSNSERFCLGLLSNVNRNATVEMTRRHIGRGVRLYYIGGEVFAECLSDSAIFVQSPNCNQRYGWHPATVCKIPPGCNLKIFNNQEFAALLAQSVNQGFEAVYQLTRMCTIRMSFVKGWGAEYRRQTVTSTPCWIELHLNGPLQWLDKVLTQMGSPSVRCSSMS
From the text: 293T cells were transfected with TGFβRII. Some of these cells were then co-transfected with a “His”-tagged TRIP-1 (His-TRIP-1). In lane A, in which both the receptor and TRIP-1 were present, but GST-TRAP was not added, no parts of the complex could be “pulled down” with glutathione coated beads. The same was true if His-TRIP-1 was not transfected into the cells. However, if the receptor, TRIP-1 and GST-TRAP were all present, a protein complex composed of the receptor, TRIP-1 and Smad 2 could be extracted with glutathione coated beads.
GST-TRAP and GST-TRIP fusion proteins, and GST control protein were purified as instructed by the manufacturer (Amersham Pharmacia). Briefly, plasmids containing GST-fusion protein expressing cDNA were transformed into a BL21DE3)pLysS bacteria strain and selected for ampicillin and chloramphenicol resistant colonies. Selected colonies were grown in LB medium at 30° C. until OD600 reached 0.6 to 1. Then 0.1 mM IPTG was added to medium for 3 hours. Bacteria were lysed by B-PER (Pierce) with 1 mM PMSF. Lysed bacteria were spun down and the supernatants were collected. […]
Detection of HIS-TRIP was performed with anti-HIS antibodies and detection of the TGFβRII and Smad 2 were performed with a commercially available antibodies. […] The beads were extensively washed and the proteins interacting with the beads were analyzed with Western analysis.

Molecule: C[S+](C)[O-] [DMSO]
protection from apoptosis induced by TRAP (ROS 17/2.8 cells): did not protect cells from apoptosis induced by TRAP

Molecule: TGFβ
effect on alkaline phosphatase activity, Runx 2, OPG and collagen protein synthesis (isolated osteoblasts): an increase in alkaline phosphatase activity, and an increase in Runx 2, osteoprotegerin (OPG) and collagen protein synthesis | activation of reporter gene in Smad4 deficient cells (SW408 cells): neither TGFβ nor TRAP could activate the reporter gene | signaling after restoration of Smad4 and TRIP-1 protein (SW408 cells; cells transfected with Smad4 and TRIP-1): restores TGFβ and TRAP signaling | level of OPG (D14 primary osteoblasts): less Osteoprotegrin (OPG) production | activation of P3TP lux [1]: strongly activate P3TP lux | P3TP-Lux activation with co-transfected dominant negative type II TGFβ receptor [2]: block both TGFβ and TRAP activation of the pathway | upregulation of P3TP-Lux reporter gene ([2]; TRAP 10 μg/ml, TGFβ 5 ng/ml, MG-63 shown, SaOS2 the same): strongly upregulate a reporter gene

cleaved caspase 3 and cleaved PARP [3]: have the same effect on the cells
B1: GST-TRAP: recombinant fusion protein of GST and TRAP, non-glycosyl protein made in bacteria (protein)
chain: ATPALRFVAVGDWGGVPNAPFHTAREMANAKEIARTVQILGADFILSLGDNFYFTGVQDINDKRFQETFEDVFSDRSLRKVPWYVLAGNHDHLGNVSAQIAYSKISKRWNFPSPFYRLHFKIPQTNVSVAIFMLDTVTLCGNSDDFLSQQPERPRDVKLARTQLSWLKKQLAAAREDYVLVAGHYPVWSIAEHGPTHCLVKQLRPLLATYGVTAYLCGHDHNLQYLQDENGVGYVLSGAGNFMDPSKRHQRKVPNGYLRFHYGTEDSLGGFAYVEISSKEMTVTYIEASGKSLFKTRLPRRARP
modifications: left off: a dimerising Fc or GST
notes: recombinant fusion protein of GST and TRAP, non-glycosyl protein made in bacteria
proteins pulled down with glutathione beads [4]: the complex of the TGFβRII, HIS-TRIP and Smad 2 can be extracted and detected
